Legend:
Format in all cases: cell-based, human
PSC-CMs [1] = assay: Oxygen consumption rate and respiratory reserve capacity of PSC-CMs
Text: FOXO activation with LOM612 (FIG. 18A) or FOXM1 inhibition with RCM-1 (FIG. 18B) increases maximum oxygen consumption rate (OCR) and respiratory reserve capacity, while inhibition of FOXO with AS1842856 (FIG. 18C) inhibits maximum OCR and respiratory reserve capacity.
In some embodiments, the cardiomyocytes are metabolically mature cardiomyocytes. In some aspects, a cardiomyocyte has increased metabolic activity as compared to an immature cardiomyocyte. In some embodiments, a cardiomyocyte has increased oxygen consumption and/or extracellular acidification rate as compared to immature cardiomyocytes. In some embodiments, a cardiomyocyte has increased respiratory reserve as compared to immature cardiomyocytes. Metabolic maturity may be quantified using a Seahorse mito stress metabolic assay (Agilent). The assay may be used to measure oxygen consumption rate and extracellular acidification rate in response to one or more compounds (e.g., small molecule compounds) that affect mitochondrial function.
FOXO activation with LOM612 or FOXM1 inhibition with RCM-1 increases maximum oxygen consumption rate (OCR) and respiratory reserve capacity, while inhibition of FOXO with AS1842856 inhibits maximum OCR and respiratory reserve capacity (FIG. 18).

[2] = tested on: iPSC-derived cardiomyocytes; assay: Protein expression of cardiac markers in iPSC-CMs, 3D suspension culture, FOXO/FOXM1 modulators; settings: for protein expression of TNNI3 / protein expression of TNNT2: 3D suspension culture
Text: (§1) FOXO activation with LOM612 enhances protein (FIG. 19B) but not RNA expression of Kir2.1 (FIG. 19A). FOXO activation increases the upstroke velocity (spike slope) (FIG. 19C).
(§2) Cell lines used included UCSD142i-86-1 iPSC line (WiCell), Gibco human episomal iPSC line (Thermo), and DiPS 1016SevA iPSC line (Harvard. Cardiomyocytes are obtained utilizing a differential protocol adapted from Lian et al. Nat Protoc 2013: 8 (1): 162-75 (FIG. 16A). The differentiation protocol may be modified utilizing modulators of FOXO and FOXM1 (FIG. 16B). Cardiomyocytes may be characterized as being contractility mature, metabolically mature, or electrophysiologically mature (FIG. 16C).

[3] = tested on: iPSC-derived cardiomyocytes; assay: Contractile and electrophysiological properties by multielectrode array analysis, FOXO/FOXM1 modulators; settings: for contractility: iPSC-derived cardiomyocytes
Text: as §2
The contractile properties of cardiomyocytes improved with FOXO activation. FOXO activation with LOM612 or FOXM1 inhibition with RCM-1 increases protein expression of cardiac troponin T (TNNT2) and increases mean beat amplitude by multielectrode array analysis (FIG. 17). […] AS1842856 may be applied in an amount of about 0.2 to 1 μM.
(§3) FOXO activation improved electrophysiological properties of PSC-CMs. FOXO activation with LOM612 enhances protein, but not RNA expression of Kir2.1 (FIGS. 19A-19B). FOXO activation increases the upstroke velocity (spike slope) (FIG. 19C).

PSC-CMs [4] = assay: RNA expression of cardiac markers in PSC-CMs
Text: as §1, §3

iPSC-CMs [5] = assay: Multielectrode array (Axion Maestro Edge) of iPSC-CMs in 3D culture; settings: iPSC-CMs differentiated and treated in 3D
Text: (§4) Nutlin-3a increases the percentage (FIG. 12A) and mean fluorescence intensity (MFI) (FIG. 12B) of TNNT2 in iPSC-CMs as well as the percentage (FIG. 12C) and MFI (FIG. 12D) of Kir2.1 in TNNT2+iPSC-CMs by flow cytometry. Nutlin-3a increases the percentage (FIG. 12E) and MFI (FIG. 12F) of p53 in TNNT2+iPSC-CMs. Nutlin-3a increases mean beat amplitude (FIG. 12G) and mean spike amplitude (FIG. 12H) of iPSC-CMs as quantified using a multielectrode array. *p<0.05. **p<0.01. ***p<0.001. ****p<0.0001 by one-way ANOVA. iPSC-CMs differentiated and treated in 3D.
(§5) Kir2.1 is the ion channel largely responsible for maintaining the resting membrane potential via the inward rectifier current (IK1); at lower levels, abnormal membrane depolarization can increase the risk of ventricular arrhythmias (8, 9). Nutlin-3a but not Torin1 treatment of iPSC-CMs increased expression of TNNT2 and Kir2.1 (FIG. 12A-12D). Also, Nutlin-3a but not Torin1 increased expression of p53, which may support induction of a quiescent state (FIG. 12E-12F).

iPSC-CMs [6] = assay: Flow cytometry of marker expression in iPSC-CMs differentiated and treated in 3D culture
Text: as §4, with “3D. […]” for “3D.”
as §5

iPSC-CMs [7] = assay: Resting membrane potential of iPSC-CMs in 2D culture; settings: Torin1 200 nM, compared to control (DMSO)
Text: Pluripotent stem cell-derived cardiomyocytes (PSC-CMs) offer a regenerative approach to treat patients with systolic heart failure. However, delivery of immature PSC-CMs may increase the risk of ventricular arrhythmias, which is a barrier to clinical translation (1, 2). It was recently identified that inhibition of the mechanistic target of rapamycin (mTOR) pathway improves maturation of cardiomyocytes derived from induced pluripotent stem cells (iPSCs) in two-dimensional (2D) culture (3). […] This could greatly simplify the manufacturing process compared to other protocols that take 2 months to produce mature PSC-CMs with similar resting membrane potentials (4).

Row | Compound | maximum oxygen consumption rate (OCR) (PSC-CMs [1]) | respiratory reserve capacity (PSC-CMs [1]) | protein expression of TNNI3 [2] | protein expression of TNNT2 [2] | contractility [3] | mean beat amplitude by multielectrode array analysis ([3]; 3D suspension culture) | mean fluorescence intensity (MFI) of Kir2.1 (iPSC-CMs [6]; flow cytometry) | mean fluorescence intensity (MFI) of p53 (iPSC-CMs [6]; flow cytometry) | percentage of Kir2.1 in TNNT2+ iPSC-CMs (iPSC-CMs [6]; flow cytometry) | percentage of TNNT2 in iPSC-CMs (% TNNT2+) (iPSC-CMs [6]; flow cytometry) | percentage of p53 in TNNT2+ iPSC-CMs (iPSC-CMs [6]; flow cytometry) | expression of Kir2.1 (iPSC-CMs [6]; iPSC-CMs) | expression of p53 (iPSC-CMs [6]; iPSC-CMs) | further results
1 | CCn1cc(C(=O)O)c(=O)c2c(N)c(F)c(NC3CCCCC3)cc21 [AS1842856] | inhibits | inhibits | decreases | decreases | poorly contractile cells | – | – | – | – | – | – | – | – | beating of spheroids ([3]; 3D suspension culture): non-beating spheroids; cardiac marker RNA levels (PSC-CMs [4]): reduce
2 | CN(C)c1nsc2c1C(=O)c1ccccc1C2=O [LOM612] | increases | increases | increases | increases | enhances | increases | – | – | – | – | – | – | – | protein expression of Kir2.1 ([2]; PSC-CMs): enhances; upstroke velocity (spike slope) ([3]; FOXO activation, PSC-CMs): increases
3 | COc1ccc(C2=N[C@@H](c3ccc(Cl)cc3)[C@@H](c3ccc(Cl)cc3)N2C(=O)N2CCNC(=O)C2)c(OC(C)C)c1 [Nutlin-3a, nutlin-3a] | – | – | – | – | – | – | increases | increases | increases | increases | increases | increased | increased | mean beat amplitude (iPSC-CMs [5]): increases; mean spike amplitude (iPSC-CMs [5]): increases; mean fluorescence intensity (MFI) of TNNT2 (iPSC-CMs [6]; flow cytometry): increases; expression of TNNT2 (iPSC-CMs [6]; iPSC-CMs): increased
4 | O=c1c(O)c(-c2ccc(O)c(O)c2)oc2cc(O)cc(O)c12 [Quercetin, quercetin] | – | – | – | – | – | – | increases | increases | increases | – | increases | increased | increased | –
5 | N#Cc1c(-c2cccs2)cc(-c2cccs2)nc1SCC(=O)c1cccs1 [RCM1] | increases | increases | increases | increases | – | increases | increases | – | increases | increases | – | increased | – | purity of iPSC-CMs (iPSC-CMs [6]): increased
6 | CCC(=O)N1CCN(c2ccc(-n3c(=O)ccc4cnc5ccc(-c6cnc7ccccc7c6)cc5c43)cc2C(F)(F)F)CC1 [Torin1] | – | – | – | – | – | – | – | – | – | – | – | – | – | resting membrane potential (iPSC-CMs [7]): decreased

From US20250297224A1, “CARDIOMYOCYTES AND COMPOSITIONS AND METHODS FOR PRODUCING THE SAME” (President and Fellows of Harvard College, priority 2021, published 2025)
